Where two headings read alike, the source gives them in different places. Values belong to the compound of their own block, whether it stands above or below them.
Key:
[1] = test system: A2780 (ovarian carcinoma cell line); experiment: MTS cell viability assay, 2D culture, A2780; format: cell-based, human
[2] = test system: HCT116DoxR (Dox-resistant colorectal carcinoma cell line); conditions: cited from earlier work
[3] = test system: HCT116DoxR cells; experiment: Cell cycle progression (PI, flow cytometry)
[4] = test system: HCT116 (colorectal carcinoma cell line); experiment: MTS cell viability assay, 2D culture, HCT116; format: cell-based, human
[5] = test system: HCT116DoxR cells; experiment: Cellular senescence (β-galactosidase, flow cytometry); conditions: 48 h; complexes at IC50, cisplatin 5 μM, Dox 6 μM
[6] = test system: HCT116DoxR cells; experiment: Annexin V-FITC/PI apoptosis assay by flow cytometry; conditions: 48 h, complexes at IC50, Dox 6 μM, cisplatin 5 μM
[7] = test system: HCT116DoxR (Dox-resistant colorectal carcinoma cell line); experiment: MTS cell viability assay, 2D culture, HCT116DoxR; conditions: read-out: IC50 (μM) HCT116DoxR, 48 h of exposure
[8] = test system: normal human primary dermal fibroblasts; parameters: method as in PMID 29688241; conditions: 48 h; previously obtained; cited from earlier work
[9] = test system: caspase-8; experiment: Caspase-8 activity (IETD-pNA cleavage); format: cell-based, human; conditions: HCT116DoxR, 48 h; complexes at IC50, cisplatin 5 μM
Procedure: In this assay, the chromogenic substrate IETD-pNA, resulting from the conjugation between the peptide IETD (Ile-Glu-Thr-Asp) and the chromophore pNA (p-nitroanilide), is cleaved by caspase-8, releasing the chromophore, which is detected by measuring absorbance at 400 nm.[48] […]
treated with ECLTM Prime Western Blotting Detection Reagents (Cytiva, United Kingdom) for 5 min and exposed to a film in a dark room. Membranes were later incubated (with agitation) twice with Stripping buffer (0.1M glycine, 20 mM magnesium acetate, 50 mM KCl, pH 2.0) during 10 and 20 min, respectively, and subsequently incubated with anti-β-actin (1:5000; Sigma, St. Louis, USA) as a control to normalize the results. Proteins were quantified by densitometry using Image J software.
The Caspase-8 activity in HCT116DoxR cells exposed to Cu(II) complexes was evaluated using the Caspase-8 Assay kit (ab39700) (Abcam, Cambridge, United Kingdom). […]
The plate was then incubated for 2 h at 37°C, after which, absorbance was read at 400 nm on a Tecan Infinite M200 microplate reader (Männedorf, Switzerland).
ΔΨm was evaluated in HCT116DoxR cell line by using the JC-1 Mitochondrial Membrane Potential Assay Kit (Abnova Corporation, Walnut, CA, USA). […]
Autophagy induction in HCT116DoxR cell line was evaluated using the Autophagy Assay Kit (ab139484) (Abcam, Cambridge, United Kingdom) according to the manufacturers’ instructions. […]

IC50 ([1]; Homo sapiens, A2780, 48 h of exposure): 0.1 ± 0.04 µM | IC50 ([4]; Homo sapiens, HCT-116, 48 h of exposure): 0.5 ± 0.1 µM
Compound: COc1cccc2c1C(=O)c1c(O)c3c(c(O)c1C2=O)C[C@@](O)(C(=O)CO)C[C@@H]3O[C@H]1C[C@H](N)[C@H](O)[C@H](C)O1 [Dox, doxorubicin, reference compound]
IC50 [2]: > 6 µM | cell cycle arrest in the G2/M phase ([3]; Dox 6 μM, 9–24 h): not verified | induction of cellular senescence compared to DMSO control [5]: did not induce an increase in cellular senescence | cells (%) early apoptosis [6]: 16.6 ± 5.5% | cells (%) late apoptosis [6]: 13.9 ± 1.9% | cells (%) necrosis [6]: 9.8 ± 4.0% | cells (%) viable [6]: 59.8 ± 3.8% | percentage of apoptosis (early + late) [6]: ~31% | viability at 6 µM ([6]; Homo sapiens, read-out: cells (%) viable, 48 h): ~60%

Compound: COc1ccc(-c2cc(-c3ccccn3)nc(-c3ccccn3)c2)c2ccccc12 [L3]
IC50 [7]: 0.2 ± 0.02 µM | IC50 [8]: 0.95 ± 0.08 µM

Compound: N.N.[Cl][Pt][Cl] [cisplatin, reference compound]
IC50 ([1]; 48 h of exposure): 1.9 ± 0.2 µM | cell cycle progression after 24 h ([3]; 24 h, complexes at IC50, cisplatin 5 μM): delay the cycle in the G2/M phase | increase in caspase-8 activity compared to vehicle control (DMSO) [9]: 2- to 3 fold | IC50 ([4]; 48 h of exposure): 15.6 ± 5.3 µM | induction of cellular senescence compared to DMSO control [5]: induce cellular senescence | cells (%) early apoptosis [6]: 47.5 ± 7.2% | cells (%) late apoptosis [6]: 19.8 ± 5.9% | cells (%) necrosis [6]: 0.1 ± 0.1% | percentage of apoptosis (early + late) [6]: 65 to 70%

Source: publication PMC11017252, “Copper(II) Complexes with 2,2′:6′,2″-Terpyridine Derivatives Displaying Dimeric Dichloro−μ–Bridged Crystal Structure: Biological Activities from 2D and 3D Tumor Spheroids to In Vivo Models” (Journal of Medicinal Chemistry, 2024)
